# Experimental data taken from patent publication US20140329870A1, “COMPOSITIONS COMPRISING ISOSORBIDE MONOESTERS AND ISOTHIAZOLINONES” (CLARIANT INTERNATIONAL LTD., priority 2011, published 2014).
# Like-named read-outs stand apart in the source and are kept apart here.
# Legend:
# [1] = tested on: bacteria, fungi and yeasts; details: general statement, no test data given, cited from earlier work
# Pseudomonas oleovorans = assay: Minimum inhibitory concentration (MIC) in agar, antimicrobial efficacy; assay type: cell-based; details: CASO agar pH 7
# Protocol: (§1) Below, the antimicrobial efficacy of a composition according to the invention consisting of 50% by weight of isorbide caprylate 1 and 50% by weight of a 2% by weight strength solution of methylisothiazolinone in water against bacteria, fungi and yeasts is examined (hereinbelow, the composition is referred to as “composition A”). For the tests with bacteria, composition A was diluted with butyl polyglycol and then, at 50° C., added to liquid CASO agar (casein-peptone agar) buffered to pH 7 (+/−0.2) in various concentrations (hereinbelow referred to as compositions B1, B2, etc.). For the tests with fungi and yeasts, composition A was diluted with butyl polyglycol and then added to liquid Sabouraud 4% dextrose agar buffered to pH 5.6 (+/−0.2) in various concentrations (hereinbelow referred to as compositions PH1, PH2, etc.). The compositions B1, B2, etc. and PH1, PH2 etc. were each poured into Petri dishes and each inoculated with identical amounts of bacteria, fungi and yeasts. The minimum inhibitory concentration (MIC) is the concentration at which inhibition of the growth of the bacteria, fungi and yeasts in the compositions B1, B2, etc. and PH1, PH2, etc. occurs.
# (§2) The minimum inhibitory concentrations for the pure substances isosorbide caprylate 1 and methylisothiazolinone were determined analogously.
# (§3) The values determined for the minimum inhibitory concentrations “MIC mixture”, stated in Table 1 below, are based on the concentrations of composition A.
# (§4) The values determined for the minimum inhibitory concentrations “QA” and “QB”, stated in Table 1 below, have already been corrected for the dilution effect of the water and the butyl polyglycol.
# (§5) Kull et al., Applied Microbiology 1961, 9, 538 using the formula below: […]
# (§6) where • Qa is the minimum inhibitory concentration of isosorbide caprylate 1 in the mixture employed, • QA is the minimum inhibitory concentration of isosorbide caprylate 1, • Qb is the minimum inhibitory concentration of methylisothiazolinone in the mixture employed and • QB is the minimum inhibitory concentration of methylisothiazolinone.
# (§7) The values for Qa and Qb are determined from the values for the mixtures (“MIC mixture”) by multiplying the minimum inhibitory concentrations determined for Qa with the factor 0.5 and for Qb with the factor 0.01, because of the proportions of the ingredients—50% by weight of isosorbide caprylate 1 and 50% by weight of a 2% by weight strength solution of methylisothiazolinone in water—in composition A according to the invention examined.
# (§8) If an SE value >1 is obtained, an antagonistic effect is present.
# Candida albicans = assay: as above; assay type: cell-based; details: Sabouraud 4% dextrose agar pH 5.6
# Protocol: as §1, §2, §3, §4, §5, §6, §7, §8
# Penicillium minioluteum = assay: as above; assay type: cell-based; details: Sabouraud 4% dextrose agar pH 5.6
# Protocol: as §1, §2, §3, §4, §5, §6, §7, §8
# Citrobacter freundii = assay: as above; assay type: cell-based; details: CASO agar pH 7
# Protocol: as §1, §2, §3, §4, §5, §6, §7, §8
# Proteus vulgaris = assay: as above; assay type: cell-based; details: CASO agar pH 7
# Protocol: as §1, §2, §3, §4, §5, §6, §7, §8
# Aspergillus terreus = assay: as above; assay type: cell-based; details: Sabouraud 4% dextrose agar pH 5.6
# Protocol: as §1, §2, §3, §4, §5, §6, §7, §8
# Aspergillus brasiliensis = assay: as above; assay type: cell-based; details: Sabouraud 4% dextrose agar pH 5.6
# Protocol: as §1, §2, §3, §4, §5, §6, §7, §8
# Pseudomonas aeruginosa = assay: as above; assay type: cell-based; details: CASO agar pH 7
# Protocol: as §1, §2, §3, §4, §5, §6, §7, §8
# Penicillium funicolosium = assay: as above; assay type: cell-based; details: Sabouraud 4% dextrose agar pH 5.6
# Protocol: as §1, §2, §3, §4, §5, §6, §7, §8
# Fusarium solani = assay: as above; assay type: cell-based; details: Sabouraud 4% dextrose agar pH 5.6
# Protocol: as §1, §2, §3, §4, §5, §6, §7, §8
# Enterobacter aerogenes = assay: as above; assay type: cell-based; details: CASO agar pH 7
# Protocol: as §1, §2, §3, §4, §5, §6, §7, §8
# Escherichia coli = assay: as above; assay type: cell-based; details: CASO agar pH 7
# Protocol: as §1, §2, §3, §4, §5, §6, §7, §8
# Staphylococcus aureus = assay: as above; assay type: cell-based; details: CASO agar pH 7
# Protocol: as §1, §2, §3, §4, §5, §6, §7, §8
# Klebsiella pneumoniae = assay: as above; assay type: cell-based; details: CASO agar pH 7
# Protocol: as §1, §2, §3, §4, §5, §6, §7, §8
# [2] = tested on: bacteria, fungi and yeasts; assay: Antimicrobial activity, overall statements on the test series; assay type: cell-based
# Protocol: as §1, §2, §5
# [3] = in composition A, MIC mixture x 0.01
# [4] = pure substance, corrected for dilution
compound,measurement,setting,value
"CCCCCCCC(=O)O [caprylic acid, octanoic acid]",antimicrobial activity (in words),[1]; at a pH of 6 or above,no antimicrobial activity
same,antimicrobial efficacy (in words),[1],antimicrobially effective
O[C@@H]1CO[C@H]2[C@@H]1OC[C@@H]2O [isosorbide],MIC,"Pseudomonas oleovorans; Ectopseudomonas oleovorans, Table 2",10000 µg/mL
same,MIC,"Candida albicans; Candida albicans, Table 2",10000 µg/mL
same,MIC,"Penicillium minioluteum; Talaromyces minioluteus, Table 2",10000 µg/mL
same,MIC,"Citrobacter freundii; Citrobacter freundii, Table 2",10000 µg/mL
same,MIC,"Proteus vulgaris; Proteus vulgaris, Table 2",10000 µg/mL
same,MIC,"Aspergillus terreus; Aspergillus terreus, Table 2",10000 µg/mL
same,MIC,"Aspergillus brasiliensis; Aspergillus brasiliensis, Table 2",10000 µg/mL
same,MIC,"Pseudomonas aeruginosa; Pseudomonas aeruginosa, Table 2",10000 µg/mL
same,MIC,"Penicillium funicolosium; Penicillium, Table 2",10000 µg/mL
same,MIC,"Fusarium solani; Fusarium solani, Table 2",10000 µg/mL
same,MIC,"Enterobacter aerogenes; Klebsiella aerogenes, Table 2",10000 µg/mL
same,MIC,"Escherichia coli; Escherichia coli, Table 2",10000 µg/mL
same,MIC,"Staphylococcus aureus; Staphylococcus aureus, Table 2",10000 µg/mL
same,MIC,"Klebsiella pneumoniae; Klebsiella pneumoniae, Table 2",10000 µg/mL
same,antimicrobial activity (in words),[2]; as shown by the results of Table 2,neither isosorbide nor isosorbide dicaprylate are antimicrobially active
Cn1sccc1=O [methylisothiazolinone],"Qb, calc. (MIC of methylisothiazolinone in the mixture employed)",Pseudomonas oleovorans; [3],5 ppm
same,"QB, meas. (MIC of methylisothiazolinone)",Pseudomonas oleovorans; [4],5 ppm
same,"Qb, calc. (MIC of methylisothiazolinone in the mixture employed)",Candida albicans; [3],10 ppm
same,"QB, meas. (MIC of methylisothiazolinone)",Candida albicans; [4],100 ppm
same,"Qb, calc. (MIC of methylisothiazolinone in the mixture employed)",Penicillium minioluteum; [3],7.5 ppm
same,"QB, meas. (MIC of methylisothiazolinone)",Penicillium minioluteum; [4],100 ppm
same,"Qb, calc. (MIC of methylisothiazolinone in the mixture employed)",Citrobacter freundii; [3],10 ppm
same,"QB, meas. (MIC of methylisothiazolinone)",Citrobacter freundii; [4],15 ppm
same,"Qb, calc. (MIC of methylisothiazolinone in the mixture employed)",Proteus vulgaris; [3],5 ppm
same,"QB, meas. (MIC of methylisothiazolinone)",Proteus vulgaris; [4],5 ppm
same,"Qb, calc. (MIC of methylisothiazolinone in the mixture employed)",Aspergillus terreus; [3],7.5 ppm
same,"QB, meas. (MIC of methylisothiazolinone)",Aspergillus terreus; [4],100 ppm
same,"Qb, calc. (MIC of methylisothiazolinone in the mixture employed)",Aspergillus brasiliensis; [3],10 ppm
same,"QB, meas. (MIC of methylisothiazolinone)",Aspergillus brasiliensis; [4],100 ppm
same,"Qb, calc. (MIC of methylisothiazolinone in the mixture employed)",Pseudomonas aeruginosa; [3],20 ppm
same,"QB, meas. (MIC of methylisothiazolinone)",Pseudomonas aeruginosa; [4],40 ppm
same,"Qb, calc. (MIC of methylisothiazolinone in the mixture employed)",Penicillium funicolosium; [3],7.5 ppm
same,"QB, meas. (MIC of methylisothiazolinone)",Penicillium funicolosium; [4],100 ppm
same,"Qb, calc. (MIC of methylisothiazolinone in the mixture employed)",Fusarium solani; [3],7.5 ppm
same,"QB, meas. (MIC of methylisothiazolinone)",Fusarium solani; [4],100 ppm
same,"Qb, calc. (MIC of methylisothiazolinone in the mixture employed)",Enterobacter aerogenes; [3],15 ppm
same,"QB, meas. (MIC of methylisothiazolinone)",Enterobacter aerogenes; [4],15 ppm
same,"Qb, calc. (MIC of methylisothiazolinone in the mixture employed)",Escherichia coli; [3],10 ppm
same,"QB, meas. (MIC of methylisothiazolinone)",Escherichia coli; [4],10 ppm
same,"Qb, calc. (MIC of methylisothiazolinone in the mixture employed)",Staphylococcus aureus; [3],25 ppm
same,"QB, meas. (MIC of methylisothiazolinone)",Staphylococcus aureus; [4],40 ppm
same,"Qb, calc. (MIC of methylisothiazolinone in the mixture employed)",Klebsiella pneumoniae; [3],15 ppm
same,"QB, meas. (MIC of methylisothiazolinone)",Klebsiella pneumoniae; [4],15 ppm
isosorbide monocaprylate,antimicrobial activity (in words),[2]; concluded from Tables 1 and 2,significant antimicrobial activity
